From US20180179198A1, “TRICYCLIC MODULATORS OF TNF SIGNALING” (AbbVie Inc., priority 2015, published 2018)
Where two headings read alike, the source gives them in different places.

Molecular target: TNFα trimer (Homo sapiens, UniProt P01375)
Test: TNFα FP Competitive Binding Assay
Description: TNFα FP Competitive Binding Assay
• 1. Assay Buffer: Prepare 1× Assay Buffer (Water with 47 mM HEPES, 47 mM NaCl, 0.9 mM EDTA, 0.0071% Triton X-100) by adding 25 mL of 1 M HEPES, 5 mL of 5 M NaCl, 1 mL of 0.5 M EDTA, and 375 μL of a 10% Triton X-100 stock to a fresh 500 mL bottle of water. • 2. Assay Mixture: Prepare fresh Assay Mixture containing 20 nM TNFα trimer (60 nM protein) and 1 nM 2′,7′-difluoro-3′,6′-dihydroxy-N-(2-(2-(2-((4-(isoquinolin-8-yl)-3-(4-(isoquinolin-8-yl)phenethoxy)benzyl)oxy)ethoxy)ethoxy)ethyl)-3-oxo-3H-spiro[isobenzofuran-1,9′-xanthene]-5-carboxamide probe in 1× Assay Buffer.
Compound Plate Preparation
Manual 12-point 1:3 Dilution Plates: (384 well polypropylene plates)
Top concentration of compounds, 10 mM in DMSO, dispensed in rows A-O in columns 1 and 13. Compounds are serially diluted 1:3 with DMSO in columns 2-12 or 14-24 using a 16-channel Matrix pipettor. Plates stored at −20° C.
Discovery Preps 12-point 1:3 Dilution Plates: (384 well assay plates)
Top concentration, 5 mM in DMSO, of compounds placed in rows A-O in columns 1 and 13. Compounds are serially diluted 1:3 with DMSO in columns 2-12 or 14-24. Compound solutions are dispensed into replicate assay plates at 410 nL per well. Plates stored at 4° C.
TNFα FP Competitive Binding Assay Protocol
• 1. Compound plates are warmed to rt. • 2. Fresh Assay Mixture is prepared. • 3. Assay Mixture (20 μL) is dispensed each well of 384 assay plates using a Thermo Multidrop Combi or 16-channel Matrix pipettor. If Manual 12-point 1:3 Dilution Plates are to be tested, Assay Mix is dispensed into empty plates. Discovery Preps 12-point 1:3 Dilution Plates already contain 410 nL compound solution in DMSO. • 4. For Manual 12-point 1:3 Dilution Plates, 0.7 μL is manually transferred using a 16-channel Matrix pipettor to replicate assay plates containing 20 μL Assay Mixture for a final top compound concentration of 338 μM (3.4% DMSO). • 5. For Discovery Preps 12-point 1:3 Dilution Plates, 20 μL Assay Mixture added the 410 nL compound solution already in the plates yields a final top compound concentration of 100 μM (2.0% DMSO). • 6. Background subtraction controls are wells P1-P8 containing only Assay Buffer. The low % inhibition controls are wells P9-P16 containing only Assay Mix. The high % inhibition are wells P17-P24 containing only 1 nM 2′,7′-difluoro-3′,6′-dihydroxy-N-(2-(2-(2-((4-(isoquinolin-8-yl)-3-(4-(isoquinolin-8-yl)phenethoxy)benzyl)oxy)ethoxy)ethoxy)ethyl)-3-oxo-3H-spiro[isobenzofuran-1,9′-xanthene]-5-carboxamide probe in 1× Assay Buffer. • 7. Plates are incubated at […] for 18-24 h in 37° C. incubator (CO2 is off). • 8. Prior to reading the assay, the plates are placed in a dark cabinet to equilibrate at rt for one hour. • 9. Background-subtracted fluorescence polarization (mP) is measured using a PerkinElmer Envision plate reader. • 10. Raw data is entered into Assay Explorer and dose-response curves are generated using a variable slope curve.

[1] = TNFα FP competitive binding assay, class symbols A/B/C, read-out: TNF IC50
[2] = fluorescence polarization competition, 20 nM TNFα trimer, 1 nM OregonGreen488 probe, read-out: TNF IC50 (TNFα FP binding assay IC50)

Chain of TNFα trimer (P01375 77-233 limits assumed): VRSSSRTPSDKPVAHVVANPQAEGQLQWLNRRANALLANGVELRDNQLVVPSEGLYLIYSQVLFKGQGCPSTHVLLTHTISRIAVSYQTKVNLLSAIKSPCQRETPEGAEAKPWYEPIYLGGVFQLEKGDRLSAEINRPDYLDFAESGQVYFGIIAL

SMILES | IC50 [1] | IC50 [2]
O=C1NC[C@@H]2CN(c3ncc(-c4ccc5nc6n(c5n4)C4(COC6)COc5ccccc54)cn3)CCN12 (some centres unmarked) [AU.1] | < 1000 nM | –
OC1CC(Nc2ncc(-c3ccc4nc5n(c4n3)C3(COC5)COc4ccccc43)cn2)C1 (centres unmarked) [AU.2] | 1000 to 10000 nM | –
c1ccc2c(c1)OCC21COCc2nc3ccc(-c4cnc(NC5CCOC5)nc4)nc3n21 (centres unmarked) [AU.3] | 1000 to 10000 nM | –
OC1CCCN(c2ncc(-c3ccc4nc5n(c4n3)C3(COC5)COc4ccccc43)cn2)C1 (centres unmarked) [AU.4] | < 1000 nM | –
CN1CCN(c2ncc(-c3ccc4nc5n(c4n3)C3(COC5)COc4ccccc43)cn2)CC1 (centres unmarked) [AU.5] | 1000 to 10000 nM | –
OCC1CCCN(c2ncc(-c3ccc4nc5n(c4n3)C3(CCc4ccccc43)COC5)cn2)C1 (centres unmarked) [AV.1] | < 1000 nM | –
O=C1NC[C@@H]2CN(c3ncc(-c4ccc5nc6n(c5n4)C4(CCc5ccccc54)COC6)cn3)CCN12 (some centres unmarked) [AV.2] | < 1000 nM | –
c1ccc2c(c1)CCC21COCc2nc3ccc(-c4cnc(N5CCCOCC5)nc4)nc3n21 (centres unmarked) [AV.3] | < 1000 nM | –
OC1CCN(c2ncc(-c3ccc4nc5n(c4n3)C3(CCc4ccccc43)COC5)cn2)CC1(F)F (centres unmarked) [AV.4] | < 1000 nM | –
CC(O)C(=O)N1CCN(c2ncc(-c3ccc4nc5n(c4n3)C3(CCc4ccccc43)COC5)cn2)CC1 (centres unmarked) [AV.5] | < 1000 nM | –
O=C(CO)N1CCN(c2ncc(-c3ccc4nc5n(c4n3)C3(CCc4ccccc43)COC5)cn2)CC1 (centres unmarked) [AV.6] | < 1000 nM | –
OCC1(F)CCN(c2ncc(-c3ccc4nc5n(c4n3)C3(CCc4ccccc43)COC5)cn2)CC1 (centres unmarked) [AV.7] | < 1000 nM | –
c1ccc2c(c1)CCC21COCc2nc3ccc(-c4cnc(N5CCOCC5)nc4)nc3n21 (centres unmarked) [AV.8] | < 1000 nM | –
OC1CCCN(c2ncc(-c3ccc4nc5n(c4n3)C3(CCc4ccccc43)COC5)cn2)CC1 (centres unmarked) [AV.9] | < 1000 nM | –
O=c1cc(-c2ccc3nc4n(c3n2)[C@@H](c2ccccc2)CC4)ccn1CC1CCC(F)(F)CC1 [AW.1] | 1000 to 10000 nM | –
COCCn1ccc(-c2ccc3nc4n(c3n2)[C@@H](c2ccccc2)CC4)cc1=O [AW.2] | 1000 to 10000 nM | –
O=c1cc(-c2ccc3nc4n(c3n2)[C@@H](c2ccccc2)CC4)ccn1CC1CCOCC1 [AW.3] | 1000 to 10000 nM | –
O=c1cc(-c2ccc3nc4n(c3n2)[C@@H](c2ccccc2)CC4)ccn1C1CCOCC1 [AW.5] | 10000 to 100000 nM | –
c1ccc([C@H]2CCc3nc4ccc(-c5cnn(C6CCOCC6)c5)nc4n32)cc1 [AW.6] | 1000 to 10000 nM | –
O[C@H]1CC[C@H](Oc2cc(-c3ccc4nc5n(c4n3)C3(COC5)COc4ccccc43)ccn2)CC1 (some centres unmarked) [AX.1] | < 1000 nM | –

SMILES | IC50 [1] | IC50 [2]
O[C@H]1CC[C@@H](Oc2cc(-c3ccc4nc5n(c4n3)C3(COC5)COc4ccccc43)ccn2)CC1 (some centres unmarked) [AX.2] | 1000 to 10000 nM | –
OC1CCC(Oc2cc(-c3ccc4nc5n(c4n3)C3(COC5)COc4ccccc43)ccn2)C1 (centres unmarked) [AX.3] | < 1000 nM | –
c1nc(N2CCOCC2)ncc1-c1ccc2nc3c(n2n1)C1(CCCCC1)OCC3 [AY.1] | 1000 to 10000 nM | –
c1ccc2c(c1)OCCC21OCCc2nc3ccc(-c4cnc(N5CCOCC5)nc4)nn3c21 (centres unmarked) [AY.2] | < 1000 nM | –
OC1CCN(c2ncc(-c3ccc4nc5n(c4n3)C(c3ccccc3)COC5)cn2)CC1(F)F (centres unmarked) [AZ.1] | < 1000 nM | –
OC1CCN(c2ncc(-c3ccc4nc5n(c4n3)C(c3ccccc3)COC5)cn2)CC1 (centres unmarked) [AZ.2] | < 1000 nM | –
c1ccc(C2COCc3nc4ccc(-c5cnc(N6CCCOCC6)nc5)nc4n32)cc1 (centres unmarked) [AZ.3] | 1000 to 10000 nM | –
OCC1CCCN(c2ncc(-c3ccc4nc5n(c4n3)C(c3ccccc3)COC5)cn2)C1 (centres unmarked) [AZ.4] | < 1000 nM | –
OCC1(F)CCN(c2ncc(-c3ccc4nc5n(c4n3)C(c3ccccc3)COC5)cn2)CC1 (centres unmarked) [AZ.5] | < 1000 nM | –
CC(O)C(=O)N1CCN(c2ncc(-c3ccc4nc5n(c4n3)C(c3ccccc3)COC5)cn2)CC1 (centres unmarked) [AZ.6] | 1000 to 10000 nM | –
O=C(CO)N1CCN(c2ncc(-c3ccc4nc5n(c4n3)C(c3ccccc3)COC5)cn2)CC1 (centres unmarked) [AZ.7] | < 1000 nM | –
CC(C)(O)c1ncc(-c2ccc3nc4n(c3c2)C(c2cccc(F)c2)CC4)cn1 (centres unmarked) [B.1] | – | < 1000 nM
Cc1ccc(C)c(C2CCc3nc4ccc(-c5cnc(C(C)(C)O)nc5)cc4n32)c1 (centres unmarked) [B.2, 2-(5-(1-(2,5-Dimethylphenyl)-2,3-dihydro-1H-benzo[d]pyrrolo[1,2-a]imidazol-7-yl)pyrimidin-2-yl)propan-2-ol] | – | < 1000 nM
COc1ncc(-c2ccc3nc4n(c3n2)C2(CCOc3ccccc32)COC4)cn1 (centres unmarked) [BA.1] | 1000 to 10000 nM | –
CCOc1ncc(-c2ccc3nc4n(c3n2)C2(CCOc3ccccc32)COC4)cn1 (centres unmarked) [BA.2] | < 1000 nM | –
CS(=O)(=O)c1ncc(-c2ccc3nc4n(c3n2)C2(CCOc3ccccc32)COC4)cn1 (centres unmarked) [BA.3] | 1000 to 10000 nM | –
c1ccc2c(c1)OCCC21COCc2nc3ccc(-c4cnc(N5CCCNCC5)nc4)nc3n21 (centres unmarked) [BA.4] | 1000 to 10000 nM | –
CC(C)Nc1ncc(-c2ccc3nc4n(c3n2)C2(CCOc3ccccc32)COC4)cn1 (centres unmarked) [BA.5] | 1000 to 10000 nM | –
c1ccc2c(c1)OCCC21COCc2nc3ccc(-c4cnc(N5CCOCC5)nc4)nc3n21 (centres unmarked) [BA.6] | < 1000 nM | –
CC(C)(O)c1ncc(-c2ccc3nc4n(c3n2)C2(CCOc3ccccc32)COC4)cn1 (centres unmarked) [BA.7] | 1000 to 10000 nM | –

SMILES | IC50 [1] | IC50 [2]
c1ccc2c(c1)OCCC21COCc2nc3ccc(-c4ccnc(OC5CCOCC5)c4)nc3n21 (centres unmarked) [BA.8] | < 1000 nM | –
O=C1NC[C@@H]2CN(c3ncc(-c4ccc5nc6n(c5n4)C4(CCOc5ccccc54)COC6)cn3)CCN12 (some centres unmarked) [BB.1] | < 1000 nM | –
OC1CCN(c2ncc(-c3ccc4nc5n(c4n3)C3(CCOc4ccccc43)COC5)cn2)CC1 (centres unmarked) [BB.2] | < 1000 nM | –
OC1CCCN(c2ncc(-c3ccc4nc5n(c4n3)C3(CCOc4ccccc43)COC5)cn2)C1 (centres unmarked) [BB.3] | < 1000 nM | –
OC1CN(c2ncc(-c3ccc4nc5n(c4n3)C3(CCOc4ccccc43)COC5)cn2)C1 (centres unmarked) [BB.4] | < 1000 nM | –
OC1CCN(c2ncc(-c3ccc4nc5n(c4n3)C3(CCOc4ccccc43)COC5)cn2)C1 (centres unmarked) [BB.5] | < 1000 nM | –
OC1CC(Nc2ncc(-c3ccc4nc5n(c4n3)C3(CCOc4ccccc43)COC5)cn2)C1 (centres unmarked) [BB.6] | 1000 to 10000 nM | –
CC1(O)CN(c2ncc(-c3ccc4nc5n(c4n3)C3(CCOc4ccccc43)COC5)cn2)C1 (centres unmarked) [BB.7] | 1000 to 10000 nM | –
CN1CCN(c2ncc(-c3ccc4nc5n(c4n3)C3(CCOc4ccccc43)COC5)cn2)CC1 (centres unmarked) [BB.8] | 1000 to 10000 nM | –
COCCOc1cc(-c2ccc3nc4n(c3n2)[C@@H](c2ccccc2)CC4)ccn1 [BC.1] | 1000 to 10000 nM | –
CC(C)(O)COc1cc(-c2ccc3nc4n(c3n2)[C@@H](c2ccccc2)CC4)ccn1 [BC.2] | 1000 to 10000 nM | –
c1ccc(C2C3CC(C3)c3nc4ccc(-c5ccnc(OC6CCOCC6)c5)nc4n32)cc1 (centres unmarked) [BD.1] | 1000 to 10000 nM | –
c1ccc(C2C3CC(C3)c3nc4ccc(-c5cnc(N6CCOCC6)nc5)nc4n32)cc1 (centres unmarked) [BE.1] | 1000 to 10000 nM | –
C1=C(c2ccc3nc4n(c3n2)C2(COC4)COc3ccccc32)CNC1 (centres unmarked) [BF.1] | 1000 to 10000 nM | –
CNCC(=O)N1CC=C(c2ccc3nc4n(c3n2)C2(COC4)COc3ccccc32)CC1 (centres unmarked) [BF.2] | 1000 to 10000 nM | –
c1ccc2c(c1)OCC21COCc2nc3ccc(-c4ccnc(OC5CCOCC5)c4)nc3n21 (centres unmarked) [BG.1] | 1000 to 10000 nM | –
COc1ncc(-c2ccc3nc4n(c3n2)C2(COC4)COc3ccccc32)cn1 (centres unmarked) [BG.2] | 1000 to 10000 nM | –
C[C@H]1CN(c2ncc(-c3ccc4nc5n(c4n3)C3(COC5)COc4ccccc43)cn2)CCN1C(=O)COC(C)(C)C (stereo partly drawn) [BG.3, 2-(tert-Butoxy)-1-((2S)-4-(5-(6′,8′-dihydro-2H-spiro[benzofuran-3,9′-pyrido[3′,2′:4,5]imidazo[2,1-c][1,4]oxazin]-2′-yl)pyrimidin-2-yl)-2-methylpiperazin-1-yl)ethanone] | 1000 to 10000 nM | –
C[C@H]1CN(C(=O)COC(C)(C)C)CCN1c1ncc(-c2ccc3nc4n(c3n2)C2(COC4)COc3ccccc32)cn1 (stereo partly drawn) [BG.4, 1-((3S)-4-(5-(2H,6′H,8′H-Spiro[benzofuran-3,9′-pyrido[3′,2′:4,5]imidazo[2,1-c][1,4]oxazin]-2′-yl)pyrimidin-2-yl)-3-methylpiperazin-1-yl)-2-(tert-butoxy)ethan-1-one] | 1000 to 10000 nM | –
